The text below walks through data of article PMC7156724, “Potent BRD4 inhibitor suppresses cancer cell-macrophage interaction” (Nature Communications, 2020).

Data set [1] can be described thus: Metabolic stability assay, monkey liver microsomes. To be noted: for Remaining in Monkey liver microsomes (Sup Fig.6d): in % (unit assumed). As for the experimental part: (§1) 7. Metabolic stability assay. The metabolic profile of NHWD-870 was determined using mouse, rat, dog, monkey, and human liver microsomes using the protocols […]
(§2) No. Compound ID Exat Mass Stock Conc.
(§3) 1) 100 mM potassium phosphate buffer, PH7.4; 2) 10mM MgCI2
(§4) 1) Intermediate solution: Dilute 5 μL of compound or control from stock solution (10 mM) with 45 uL DMSO,then mixed with 450 μL 1:1 Methanol/Water (Conc.: 10 0 […]
(§5) 2) Working solution: Dilute 50 μL from intermediate solution with 450 μL 100 mM potassium phosphate buffer (Conc.: 10 μM, 4.5%MeOH)
(§6) (3) NADPH regenerating system (final Isocitric dehydrogenase conc.= 1 unit/mL at […]
(§7) 1) β-Nicotinamide adenine dinucleotide phosphate, Vendor: sigma Cat. No. N0505
(§8) 2) Isocitric acid, Vendor: Sigma Cat. No. I1252
(§9) 3) Isocitric dehydrogenase, Vendor: sigma Cat. No. I2002
(§10) (4) Liver microsome solution preparation (final concentration o f 0.5 mg protein/mL) […]
(§11) Cold ACN including 100 ng/mL Tolbutamide and 100 ng/mL Labetalol as internal […]
(§12) 1) Add 10 μL compound or control working solution/well to all plates (T0, T5, T10, T20, T30, T60, NCF60) except matrix blank.
(§13) 2) Dispense 680 μL/well microsome solution to 96-well plate as reserv oir according to […]
(§14) plate map. Then add 80 μL/well to every plate by Apricot, incubate the mixture of microsome solution and compound at 37℃ for about 10 min.
(§15) 3) Add 10 μL 100 mM potassium phosphate buffer/well to NCF60, incubate at 37℃, […]
(§16) 4) After pre-warming, dispense 90 μL/well NADPH regenerating system to 96-well plate as reservoir according to the plate map. Then add 10 μL/well to every plate by Apricot to start reaction.
(§17) 5) Incubate at 37℃, start timer 2.
(§18) 6) Add 300 (μL/well) stop solution (cold in 4℃, including 100 ng/mL Tolbutamide and 100 ng/mL Labetalol) to terminate the reaction.
(§19) 7) The sampling plates are shaked for approx 10 min.
(§20) 8) Samples are centrifuged at 4000 rpm for 20 min under 4℃.
(§21) 9) While centrifuging, load 8×new 96-well plate with 300 μL HPLC water, then transfer 100 μL supernatant, mixed for LC/MS/MS.
(§22) Use equation of first order kinetics to calculate t1/2 and Clin t(mic): […]
(§23) Equation of first order kinetics: […]

Data set [2] is described as follows: Metabolic stability assay, dog liver microsomes. Particulars: for Remaining in Dog liver microsomes (Sup Fig.6c): in % (unit assumed). As for the experimental part:
as §1, §2, §3, §4, §5, §6, §7, §8, §9, §10, §11, §12, §13, §14, §15, §16, §17, §18, §19, §20, §21, §22, §23

The subject of the next data set is B16F10 mouse melanoma. Description: B16F10 mouse melanoma syngeneic model tumor growth. It is filed as in vivo, C57BL/6 mice. To be noted: B16F10 mouse melanoma, once daily 11 days, NHWD-870-HCl. The source says: PO, oral administration; QD, once daily; BID, twice daily. b–d Tumor growth curves for A2780 ovarian tumor (n = 5) (b), TMD8 large B cell lymphoma (n = 6) (c), and B16F10 melanoma (n = 5) (d) bearing mice treated with the indicated compounds once daily for 11-21 days. e, f Tumor growth curves for A375 melanoma (n = 6) (e), and patient-derived xenograft (PDX) of melanoma (n = 5) (f) bearing mice treated with the indicated compounds once daily (5 days on, 2 days off) for 21 days. For d–f, NHWD-870 used is NHWD-870-HCl synthesized using Suzuki coupling route. Data are presented as mean ± SEM in (a, b, d, f) and mean + SEM in (c, e). p values were calculated using two-tailed, unpaired t tests. *p < 0.05; **p < 0.01; ***p < 0.001. Source data are provided as a Source Data file.
4–6 weeks old female BALB/c nude mice were used for most experiments, with the exception of 6–8 weeks old female C57BL/6 mice were used for B16F10 experiments, and 6–8 weeks old male BALB/c nude mice and SD rats were used for pharmacokinetic experiments. All animals were purchased from Shanghai SIPPR-Bk Lab Animal Co., Ltd. All animals were housed under a regimen of 12 h light/12 h dark cycles and specific pathogen-free conditions. 5×10^6 NCI-H526, ES-2, MDA-MB231, A2780, A375, B16F10, and TMD-8 cells (0.1 ml) were injected subcutaneously into female nude mice. The melanoma patient-derived xenograft model was derived from a human melanoma sample (BRAF, NARS and NF1 wild type, and p53 mutant) removed from a patient in Xiangya Hospital. Surgically removed tumor fragments were implanted subcutaneously into female NSG mice. When the tumors grew to ~1000 mm^3, they were harvested and cryopreserved or immediately re-implanted for expansion or experiments. Mouse body weight and tumor sizes were measured every 3 days. Once the tumors grew to 150–200 mm^3, mice were treated with the compounds as described in the Figures. 1 × 10^6 A2780 cells (1 ml) were injected into the abdominal cavity of nude mice. Ascitic volume and tumor weight were measured by an electronic balance. All the procedures were evaluated and approved by the Institutional Animal Care and Use Committee of Central South University and Yale University.

Where [3] appears, read: monkey, liver microsomes, pH 7.4.
[4] abbreviates: Beagle, dog, liver microsomes, pH 7.4.

In the case of `Cc1nnn(C)c1-c1cnc2c3c4cnn(C)c4ccc3n([C@H](c3ccccc3)C3CCOCC3)c2c1` [NHWD-870], the entries for the “Remaining (T=60min)” value in data set [1] (monkey liver microsomes) and in data set [2] (dog liver microsomes) were 25.7% and 12.4%, respectively. For the same compound, the “Remaining (*NCF=60min)” value in data set [1] (monkey liver microsomes, no cofactor) is on record as 112.0%; in data set [2] (dog liver microsomes, no cofactor) it was 84.1%. Further, the CLint scaled at 1 µM in data set [1] (setting [3]) came to 62.4 mL/min/kg; in data set [2] (setting [4]), 95.9 mL/min/kg. Moreover, the half-life at 1 µM in data set [1] (setting [3]) amounted to 30 min; in data set [2] (setting [4]) it was 20.8 min. Also, the microsomal CLint at 1 µM in data set [1] (monkey, microsomes, pH 7.4) came to 46.2 µL/min/mg; in data set [2] (Beagle, dog, microsomes, pH 7.4) it was 66.6 µL/min/mg. The “Remaining in Monkey liver microsomes (Sup Fig.6d)” value in data set [1] (time 0) worked out at 100; in data set [1] (time 5), 73.787; in data set [1] (time 10), 48.901; in data set [1] (time 20), 36.72; in data set [1] (time 30) it was 26.708; in data set [1] (time 60), 12.364. Moreover, the “Remaining in Dog liver microsomes (Sup Fig.6c)” value in data set [2] (time 0) is listed as 100; in data set [2] (time 5) it was 89.9; in data set [2] (time 10), 73.773; in data set [2] (time 20), 58.934; in data set [2] (time 30), 41.202; in data set [2] (time 60) it was 25.67. The “effect on tumor growth” value with B16F10 mouse melanoma is “very strong tumor inhibitive effects”.
